How the values were obtained:
Assay in all cases: KINOMEscan
Assay type in all cases: binding
Settings in all cases: read-out: Remaining enzyme activity
[1] = biological target: T1, ABL1(F317I) (Homo sapiens, UniProt P00519, F317I)
T1 construct: purchased Ambit (DiscoverX) KINOMEscan; Cerep
Summary of the method: (§1)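 Immobilized ligand beads, biotin-blocked and washed in SeaBlock buffer with BSA, Tween 20 and DTT, are incubated with DNA-tagged kinase and 10 μM SC81458. Compound occupying the active site lowers bead-bound kinase, which is quantified by qPCR of the tag.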

[2] = biological target: T2, ABL1(H396P) (Homo sapiens, UniProt P00519, H396P)
T2 construct: purchased Ambit (DiscoverX) KINOMEscan; Cerep
Summary of the method: as §1

[3] = biological target: T3, AURKA (Homo sapiens, UniProt O14965)
T3 construct: purchased Ambit (DiscoverX) KINOMEscan; Cerep
Summary of the method: as §1

[4] = biological target: T4, BRAF (Homo sapiens, UniProt P15056)
T4 construct: purchased Ambit (DiscoverX) KINOMEscan; Cerep
Summary of the method: as §1

[5] = biological target: T5, CAMK2b (Homo sapiens, UniProt Q13554)
T5 construct: purchased Ambit (DiscoverX) KINOMEscan; Cerep
Summary of the method: as §1

[6] = biological target: T6, CAMKK1 (Homo sapiens, UniProt Q8N5S9)
T6 construct: purchased Ambit (DiscoverX) KINOMEscan; Cerep
Summary of the method: as §1

[7] = biological target: T7, CIT (Homo sapiens, UniProt O14578)
T7 construct: purchased Ambit (DiscoverX) KINOMEscan; Cerep
Summary of the method: as §1

[8] = biological target: T8, CSNK1g2 (Homo sapiens, UniProt P78368)
T8 construct: purchased Ambit (DiscoverX) KINOMEscan; Cerep
T8 sequence (P78368 whole entry): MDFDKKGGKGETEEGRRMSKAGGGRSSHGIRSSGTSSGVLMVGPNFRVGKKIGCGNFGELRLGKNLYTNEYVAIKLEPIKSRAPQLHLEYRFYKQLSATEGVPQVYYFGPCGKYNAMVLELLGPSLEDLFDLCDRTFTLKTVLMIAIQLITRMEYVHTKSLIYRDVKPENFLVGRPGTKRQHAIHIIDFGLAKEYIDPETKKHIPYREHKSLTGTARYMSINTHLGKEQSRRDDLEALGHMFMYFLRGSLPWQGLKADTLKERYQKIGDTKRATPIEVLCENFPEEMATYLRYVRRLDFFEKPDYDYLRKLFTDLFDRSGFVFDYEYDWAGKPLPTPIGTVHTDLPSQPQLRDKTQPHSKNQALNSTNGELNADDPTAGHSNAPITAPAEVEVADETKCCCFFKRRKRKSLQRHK
Summary of the method: as §1

[9] = biological target: T9, CSNK2a1 (Homo sapiens, UniProt P68400)
T9 construct: purchased Ambit (DiscoverX) KINOMEscan; Cerep
Summary of the method: as §1

[10] = biological target: T10, DMPK2 (Homo sapiens, UniProt Q6DT37)
T10 construct: purchased Ambit (DiscoverX) KINOMEscan; Cerep
Summary of the method: as §1

[11] = biological target: T11, EPHB4 (Homo sapiens, UniProt P54760)
T11 construct: purchased Ambit (DiscoverX) KINOMEscan; Cerep
Summary of the method: as §1

[12] = biological target: T12, ERK1 (Homo sapiens, UniProt P27361)
T12 construct: purchased Ambit (DiscoverX) KINOMEscan; Cerep
T12 sequence (P27361 whole entry): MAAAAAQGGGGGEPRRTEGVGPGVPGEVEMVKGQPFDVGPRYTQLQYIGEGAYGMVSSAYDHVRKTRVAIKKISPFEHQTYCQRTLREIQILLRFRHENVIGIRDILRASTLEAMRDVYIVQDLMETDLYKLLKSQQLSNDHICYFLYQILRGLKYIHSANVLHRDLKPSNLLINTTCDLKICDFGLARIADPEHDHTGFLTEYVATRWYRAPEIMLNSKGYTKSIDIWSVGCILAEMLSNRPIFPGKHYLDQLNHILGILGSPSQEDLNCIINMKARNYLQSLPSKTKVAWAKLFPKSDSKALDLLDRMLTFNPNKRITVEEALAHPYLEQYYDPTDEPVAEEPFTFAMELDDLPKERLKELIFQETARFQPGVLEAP
Summary of the method: as §1

[13] = biological target: T13, ERK3 (Homo sapiens, UniProt Q16659)
T13 construct: purchased Ambit (DiscoverX) KINOMEscan; Cerep
T13 sequence (Q16659 whole entry): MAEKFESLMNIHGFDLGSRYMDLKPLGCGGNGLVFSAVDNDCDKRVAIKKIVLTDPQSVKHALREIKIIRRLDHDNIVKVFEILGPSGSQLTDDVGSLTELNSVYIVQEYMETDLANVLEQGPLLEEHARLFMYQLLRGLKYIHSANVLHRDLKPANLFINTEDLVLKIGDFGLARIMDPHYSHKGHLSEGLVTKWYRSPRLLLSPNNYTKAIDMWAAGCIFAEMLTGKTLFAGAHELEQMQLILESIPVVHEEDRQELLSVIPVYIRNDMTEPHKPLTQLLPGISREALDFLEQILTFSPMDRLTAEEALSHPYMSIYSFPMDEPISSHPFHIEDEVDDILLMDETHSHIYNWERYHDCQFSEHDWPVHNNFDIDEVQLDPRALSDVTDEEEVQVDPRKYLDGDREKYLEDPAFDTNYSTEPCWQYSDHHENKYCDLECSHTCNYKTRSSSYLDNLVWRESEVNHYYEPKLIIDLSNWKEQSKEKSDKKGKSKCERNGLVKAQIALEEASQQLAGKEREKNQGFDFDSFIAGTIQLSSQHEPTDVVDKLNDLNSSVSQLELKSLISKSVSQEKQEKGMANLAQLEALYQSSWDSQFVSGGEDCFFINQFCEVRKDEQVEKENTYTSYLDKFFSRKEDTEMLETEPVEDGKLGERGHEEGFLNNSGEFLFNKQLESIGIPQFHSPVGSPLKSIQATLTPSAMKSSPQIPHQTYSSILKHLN
Summary of the method: as §1

[14] = biological target: T14, FLT1 (Homo sapiens, UniProt P17948)
T14 construct: purchased Ambit (DiscoverX) KINOMEscan; Cerep
Summary of the method: as §1

[15] = biological target: T15, HPK1 (Homo sapiens, UniProt Q92918)
T15 construct: purchased Ambit (DiscoverX) KINOMEscan; Cerep
Summary of the method: as §1

[16] = biological target: T16, ICK (Homo sapiens, UniProt Q9UPZ9)
T16 construct: purchased Ambit (DiscoverX) KINOMEscan; Cerep
Summary of the method: as §1

[17] = biological target: T17, LKB1 (Homo sapiens, UniProt Q15831)
T17 construct: purchased Ambit (DiscoverX) KINOMEscan; Cerep
T17 sequence (Q15831 whole entry): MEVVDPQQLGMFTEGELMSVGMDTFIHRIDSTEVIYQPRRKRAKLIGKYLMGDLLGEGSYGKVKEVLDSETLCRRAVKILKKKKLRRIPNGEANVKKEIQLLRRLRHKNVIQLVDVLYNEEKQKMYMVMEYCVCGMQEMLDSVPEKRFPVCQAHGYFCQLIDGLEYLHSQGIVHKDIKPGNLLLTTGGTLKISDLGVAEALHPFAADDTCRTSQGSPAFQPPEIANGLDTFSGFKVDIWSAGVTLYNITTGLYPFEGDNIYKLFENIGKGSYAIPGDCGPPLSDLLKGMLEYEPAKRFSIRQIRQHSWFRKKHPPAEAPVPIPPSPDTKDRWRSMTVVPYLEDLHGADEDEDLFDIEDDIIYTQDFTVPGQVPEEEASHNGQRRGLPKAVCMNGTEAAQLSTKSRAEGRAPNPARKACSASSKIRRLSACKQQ
Summary of the method: as §1

[18] = biological target: T18, MAPKAPK5 (Homo sapiens, UniProt Q8IW41)
T18 construct: purchased Ambit (DiscoverX) KINOMEscan; Cerep
T18 sequence (Q8IW41 whole entry): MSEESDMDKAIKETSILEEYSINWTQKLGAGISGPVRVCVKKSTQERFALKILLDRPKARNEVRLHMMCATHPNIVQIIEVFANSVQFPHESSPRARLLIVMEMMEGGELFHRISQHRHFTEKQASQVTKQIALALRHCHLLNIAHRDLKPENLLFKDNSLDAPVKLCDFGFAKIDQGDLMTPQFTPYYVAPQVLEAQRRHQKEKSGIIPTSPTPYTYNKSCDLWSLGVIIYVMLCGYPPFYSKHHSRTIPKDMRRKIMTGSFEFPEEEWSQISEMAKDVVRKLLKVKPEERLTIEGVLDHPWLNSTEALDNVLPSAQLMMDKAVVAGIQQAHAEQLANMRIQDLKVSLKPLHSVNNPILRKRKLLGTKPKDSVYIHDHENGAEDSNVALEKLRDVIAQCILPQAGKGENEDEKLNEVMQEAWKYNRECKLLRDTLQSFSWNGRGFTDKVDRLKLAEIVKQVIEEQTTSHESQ
Summary of the method: as §1

[19] = biological target: T19, MARK2 (Homo sapiens, UniProt Q7KZI7)
T19 construct: purchased Ambit (DiscoverX) KINOMEscan; Cerep
Summary of the method: as §1

[20] = biological target: T20, MUSK (Homo sapiens, UniProt O15146)
T20 construct: purchased Ambit (DiscoverX) KINOMEscan; Cerep
Summary of the method: as §1

[21] = biological target: T21, NEK6 (Homo sapiens, UniProt Q9HC98)
T21 construct: purchased Ambit (DiscoverX) KINOMEscan; Cerep
Summary of the method: as §1

[22] = biological target: T22, PAK7 (Homo sapiens, UniProt Q9P286)
T22 construct: purchased Ambit (DiscoverX) KINOMEscan; Cerep
Summary of the method: as §1

[23] = biological target: T23, PIK3CA(H1047Y) (Homo sapiens, UniProt P42336, H1047Y)
T23 construct: purchased Ambit (DiscoverX) KINOMEscan; Cerep
T23 sequence (P42336 whole entry H1047Y): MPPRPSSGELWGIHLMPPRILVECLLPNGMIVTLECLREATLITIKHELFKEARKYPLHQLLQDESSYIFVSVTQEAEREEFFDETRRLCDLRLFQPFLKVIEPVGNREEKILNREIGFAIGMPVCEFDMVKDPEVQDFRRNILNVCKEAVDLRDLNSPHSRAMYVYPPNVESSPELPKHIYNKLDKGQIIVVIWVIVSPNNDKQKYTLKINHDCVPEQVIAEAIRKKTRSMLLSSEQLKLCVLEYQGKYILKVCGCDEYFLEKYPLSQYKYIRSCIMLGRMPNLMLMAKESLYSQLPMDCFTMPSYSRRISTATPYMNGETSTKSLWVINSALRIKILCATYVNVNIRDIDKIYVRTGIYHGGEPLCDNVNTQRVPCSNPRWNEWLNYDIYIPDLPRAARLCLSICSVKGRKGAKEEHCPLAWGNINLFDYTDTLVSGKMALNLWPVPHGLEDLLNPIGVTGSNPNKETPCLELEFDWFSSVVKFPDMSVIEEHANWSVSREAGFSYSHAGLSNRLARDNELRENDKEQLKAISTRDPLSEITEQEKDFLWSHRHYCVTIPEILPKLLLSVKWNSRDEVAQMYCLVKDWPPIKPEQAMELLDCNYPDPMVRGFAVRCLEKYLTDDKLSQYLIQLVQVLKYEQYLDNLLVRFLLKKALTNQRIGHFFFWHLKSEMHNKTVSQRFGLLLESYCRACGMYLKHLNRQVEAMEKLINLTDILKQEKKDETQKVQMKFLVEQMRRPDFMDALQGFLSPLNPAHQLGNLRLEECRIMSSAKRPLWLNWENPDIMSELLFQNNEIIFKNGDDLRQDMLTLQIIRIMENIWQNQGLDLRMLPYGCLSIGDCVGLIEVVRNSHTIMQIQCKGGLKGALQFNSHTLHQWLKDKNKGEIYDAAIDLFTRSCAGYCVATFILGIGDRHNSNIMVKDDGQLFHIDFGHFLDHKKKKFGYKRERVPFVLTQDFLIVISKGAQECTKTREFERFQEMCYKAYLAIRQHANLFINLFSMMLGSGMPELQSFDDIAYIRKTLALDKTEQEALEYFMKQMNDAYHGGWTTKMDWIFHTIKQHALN
Summary of the method: as §1

[24] = biological target: T24, PIM1 (Homo sapiens, UniProt P11309)
T24 construct: purchased Ambit (DiscoverX) KINOMEscan; Cerep
Summary of the method: as §1

[25] = biological target: T25, PRKCQ (Homo sapiens, UniProt Q04759)
T25 construct: purchased Ambit (DiscoverX) KINOMEscan; Cerep
T25 sequence (Q04759 whole entry): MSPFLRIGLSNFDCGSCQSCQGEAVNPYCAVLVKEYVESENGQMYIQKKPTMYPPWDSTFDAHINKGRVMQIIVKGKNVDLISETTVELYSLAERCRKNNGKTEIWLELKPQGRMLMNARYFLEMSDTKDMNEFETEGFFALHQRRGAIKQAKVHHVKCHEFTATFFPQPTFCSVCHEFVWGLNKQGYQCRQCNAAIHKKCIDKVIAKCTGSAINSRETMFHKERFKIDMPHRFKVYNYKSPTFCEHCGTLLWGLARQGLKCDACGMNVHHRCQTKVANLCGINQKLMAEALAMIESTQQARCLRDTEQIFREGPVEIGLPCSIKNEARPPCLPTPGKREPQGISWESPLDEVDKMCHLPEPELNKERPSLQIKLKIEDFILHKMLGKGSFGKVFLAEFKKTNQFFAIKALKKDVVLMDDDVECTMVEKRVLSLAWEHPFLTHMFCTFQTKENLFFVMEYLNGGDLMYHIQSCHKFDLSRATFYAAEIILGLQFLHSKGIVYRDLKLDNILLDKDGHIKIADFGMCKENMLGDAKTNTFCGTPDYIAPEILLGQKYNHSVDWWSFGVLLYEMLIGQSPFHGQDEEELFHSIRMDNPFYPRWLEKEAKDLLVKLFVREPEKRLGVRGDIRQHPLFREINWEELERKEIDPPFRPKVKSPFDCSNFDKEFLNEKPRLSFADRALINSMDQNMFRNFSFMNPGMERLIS
Summary of the method: as §1

[26] = biological target: T26, PRKG2 (Homo sapiens, UniProt Q13237)
T26 construct: purchased Ambit (DiscoverX) KINOMEscan; Cerep
Summary of the method: as §1

[27] = biological target: T27, RIPK1 (Homo sapiens, UniProt Q13546)
T27 construct: purchased Ambit (DiscoverX) KINOMEscan; Cerep
Summary of the method: as §1

[28] = biological target: T28, RIPK4 (Homo sapiens, UniProt P57078)
T28 construct: purchased Ambit (DiscoverX) KINOMEscan; Cerep
T28 sequence (P57078 whole entry): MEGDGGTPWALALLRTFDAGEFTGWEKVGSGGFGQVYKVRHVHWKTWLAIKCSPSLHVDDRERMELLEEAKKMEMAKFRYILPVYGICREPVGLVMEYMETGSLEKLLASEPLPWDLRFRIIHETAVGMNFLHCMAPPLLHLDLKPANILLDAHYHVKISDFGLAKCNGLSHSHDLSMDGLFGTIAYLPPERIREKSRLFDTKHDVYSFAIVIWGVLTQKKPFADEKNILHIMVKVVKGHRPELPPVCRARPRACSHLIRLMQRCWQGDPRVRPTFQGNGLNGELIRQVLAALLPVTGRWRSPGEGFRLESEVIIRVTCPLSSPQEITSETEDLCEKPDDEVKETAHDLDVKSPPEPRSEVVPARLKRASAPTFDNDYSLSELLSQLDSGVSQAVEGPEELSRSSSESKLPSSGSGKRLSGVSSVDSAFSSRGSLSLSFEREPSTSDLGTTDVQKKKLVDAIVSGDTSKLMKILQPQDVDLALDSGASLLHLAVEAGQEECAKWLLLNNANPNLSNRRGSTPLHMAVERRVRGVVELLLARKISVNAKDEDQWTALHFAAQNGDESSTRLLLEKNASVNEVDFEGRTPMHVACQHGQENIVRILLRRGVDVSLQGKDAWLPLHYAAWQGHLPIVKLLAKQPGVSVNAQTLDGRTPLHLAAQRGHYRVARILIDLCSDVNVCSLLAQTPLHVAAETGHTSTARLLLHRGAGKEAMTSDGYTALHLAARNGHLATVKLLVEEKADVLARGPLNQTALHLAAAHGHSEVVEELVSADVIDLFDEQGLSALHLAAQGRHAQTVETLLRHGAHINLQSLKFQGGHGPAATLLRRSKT
Summary of the method: as §1

[29] = biological target: T29, RPS6KA3(Kin.Dom.1-N-term) (Homo sapiens, UniProt P51812)
T29 construct: RPS6KA3(Kin.Dom.1-N-term); purchased Ambit (DiscoverX) KINOMEscan; Cerep
Summary of the method: as §1

[30] = biological target: T30, SIK (Homo sapiens, UniProt P57059)
T30 construct: purchased Ambit (DiscoverX) KINOMEscan; Cerep
Summary of the method: as §1

[31] = biological target: T31, STK16 (Homo sapiens, UniProt O75716)
T31 construct: purchased Ambit (DiscoverX) KINOMEscan; Cerep
Summary of the method: as §1

[32] = biological target: T32, TGFBR2 (Homo sapiens, UniProt P37173)
T32 construct: purchased Ambit (DiscoverX) KINOMEscan; Cerep
Summary of the method: as §1

[33] = biological target: T33, ULK1 (Homo sapiens, UniProt O75385)
T33 construct: purchased Ambit (DiscoverX) KINOMEscan; Cerep
Summary of the method: as §1

In the case of `CCCCN1CCN(C(=N)c2cccc(NC(=O)Nc3ccc(S(=O)(=O)NCc4ccc(S(N)(=O)=O)cc4)cc3)c2)CC1` [SC81458, 4-(3-(3-((4-butylpiperazin-1-yl)(imino)methyl)phenyl)ureido)-N-(4-sulfamoylbenzyl) benzenesulfonamide], the remaining binding at 10 µM [1] was 100%, the remaining binding at 10 µM [2] was 100% and the remaining binding at 10 µM [3] was 68%. It also gave a remaining binding at 10 µM [4] of 95%, a remaining binding at 10 µM [5] of 100% and a remaining binding at 10 µM [6] of 93%. It also gave a remaining binding at 10 µM [7] of 94%, a remaining binding at 10 µM [8] of 100% and a remaining binding at 10 µM [9] of 62%. It also gave a remaining binding at 10 µM [10] of 100%, a remaining binding at 10 µM [11] of 100% and a remaining binding at 10 µM [12] of 99%. The remaining binding at 10 µM [13] was 100%, the remaining binding at 10 µM [14] was 91% and the remaining binding at 10 µM [15] was 100%. It also gave a remaining binding at 10 µM [16] of 73%, a remaining binding at 10 µM [17] of 88% and a remaining binding at 10 µM [18] of 91%. The remaining binding at 10 µM [19] was 100%, the remaining binding at 10 µM [20] was 95% and the remaining binding at 10 µM [21] was 100%. For the same compound, the remaining binding at 10 µM [22] was 100%, the remaining binding at 10 µM [23] was 100% and the remaining binding at 10 µM [24] was 100%. The remaining binding at 10 µM [25] was 100%, the remaining binding at 10 µM [26] was 80% and the remaining binding at 10 µM [27] was 100%. It also gave a remaining binding at 10 µM [28] of 74%, a remaining binding at 10 µM [29] of 100% and a remaining binding at 10 µM [30] of 97%. It also gave a remaining binding at 10 µM [31] of 100%, a remaining binding at 10 µM [32] of 80% and a remaining binding at 10 µM [33] of 100%.

— paper PMC5290327, “SC83288 is a clinical development candidate for the treatment of severe malaria” (Nature Communications, 2017)
